Test results published in the supplement of paper PMC10627819.

What was measured:
B. subtilis 168 = experiment: Bliss interaction score (quartile over a dose matrix) (fitness difference); higher = more antagonism (negative = synergy)
How it was run: (§1)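 The Bliss score is observed minus expected fitness, where expected fitness is the product of the single-drug fitness values inferred from the combination data. Fitness is the OD595 at the onset of stationary phase over the plate's robust no-drug mean, capped at 1. Scores are summarised by quartiles over technical, biological and donor/recipient replicates.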

S. aureus DSM 20231 [1] = experiment: as above
How it was run: as §1

S. pneumoniae D39V [2] = experiment: as above
How it was run: as §1

S. aureus Newman [3] = experiment: as above
How it was run: as §1

S. aureus DSM 20231 [4] = experiment: fitness (endpoint OD595 vs no drug) (fraction); higher = more growth
How it was run: (§2)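 Fitness was defined as the optical density at the transition into stationary phase relative to the robust mean of no-drug control wells. Values were capped at 1. Cultures were started at OD595 0.01 in 384-well plates (30 µl, or 55 µl for S. pneumoniae) in TSB, LB Lennox or CY at 37 °C. OD595 was recorded every 30 min over 14 h, with the first reading subtracted as background.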

S. pneumoniae D39V [5] = experiment: as above
How it was run: as §2

S. aureus Newman [6] = experiment: as above
How it was run: as §2
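Wherever Bliss interaction score (quartile over a dose matrix) is given: first quartile when negative (synergy) and third quartile when positive (antagonism).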

O=C(O[C@@H]1Cc2c(O)cc(O)cc2O[C@@H]1c1cc(O)c(O)c(O)c1)c1cc(O)c(O)c(O)c1 [EGCG] + CN[C@H](CC(C)C)C(=O)N[C@H]1C(=O)N[C@@H](CC(N)=O)C(=O)N[C@H]2C(=O)N[C@H]3C(=O)N[C@H](C(=O)N[C@H](C(=O)O)c4cc(O)cc(O)c4-c4cc3ccc4O)[C@H](O)c3ccc(c(Cl)c3)Oc3cc2cc(c3O[C@@H]2O[C@H](CO)[C@@H](O)[C@H](O)[C@H]2O[C@H]2C[C@](C)(N)[C@H](O)[C@H](C)O2)Oc2ccc(cc2Cl)[C@H]1O [Vancomycin]
Details | Bliss interaction score
B. subtilis 168 | 0.0425
S. aureus DSM 20231 [1] | 0.0881
S. aureus Newman [3] | -0.0625
S. pneumoniae D39V [2] | 0.0478

fitness
Details | first compound 12.5 µg/mL | first compound 25 µg/mL | first compound 50 µg/mL
S. aureus DSM 20231 [4], partner 0.1875 µg/mL | 0.846 | 0.747 | 0.753
S. aureus DSM 20231 [4], partner 0.375 µg/mL | 0.842 | 0.781 | 0.836
S. aureus DSM 20231 [4], partner 0.75 µg/mL | 0.865 | 0.885 | 0.738
S. aureus Newman [6], partner 0.1875 µg/mL | 0.754 | 0.782 | –
S. aureus Newman [6], partner 0.375 µg/mL | 0.757 | 0.766 | 0.846
S. aureus Newman [6], partner 0.75 µg/mL | 0.789 | 0.776 | 0.778
S. pneumoniae D39V [5], partner 0.03125 µg/mL | 0.907 | 0.913 | 0.931
S. pneumoniae D39V [5], partner 0.0625 µg/mL | 0.887 | 0.901 | 0.959
S. pneumoniae D39V [5], partner 0.125 µg/mL | 0.889 | 0.89 | 0.948
S. pneumoniae D39V [5], partner 0.25 µg/mL | 0.317 | – | 0.397
S. pneumoniae D39V [5], partner 0.5 µg/mL | 0.0543 | 0.0794 | 0.143

O=C(O[C@@H]1Cc2c(O)cc(O)cc2O[C@@H]1c1cc(O)c(O)c(O)c1)c1cc(O)c(O)c(O)c1 [EGCG] + Cn1nnc(-c2ccc(-c3ccc(N4C[C@H](CO)OC4=O)cc3F)cn2)n1 [Tedizolid]
Details | Bliss interaction score
B. subtilis 168 | 0.0863
S. aureus DSM 20231 [1] | 0.11
S. aureus Newman [3] | -0.0709
S. pneumoniae D39V [2] | -0.0687

fitness
Details | partner 0.03125 µg/mL | partner 0.0625 µg/mL | partner 0.125 µg/mL | partner 0.25 µg/mL | partner 0.5 µg/mL
S. aureus DSM 20231 [4], first compound 12.5 µg/mL | – | 0.865 | 0.734 | 0.401 | –
S. aureus DSM 20231 [4], first compound 25 µg/mL | – | 0.762 | 0.783 | 0.569 | –
S. aureus DSM 20231 [4], first compound 50 µg/mL | – | 0.805 | 0.714 | 0.326 | –
S. aureus Newman [6], first compound 12.5 µg/mL | – | 0.735 | 0.673 | 0.329 | –
S. aureus Newman [6], first compound 25 µg/mL | – | 0.783 | 0.679 | – | –
S. aureus Newman [6], first compound 50 µg/mL | – | 0.745 | 0.653 | – | –
S. pneumoniae D39V [5], first compound 12.5 µg/mL | 0.913 | 0.925 | – | 0.308 | 0.194
S. pneumoniae D39V [5], first compound 25 µg/mL | 0.974 | 0.94 | 0.718 | 0.328 | 0.107
S. pneumoniae D39V [5], first compound 50 µg/mL | 0.993 | 0.959 | 0.791 | – | 0.262

COc1c(N2C[C@@H]3CCCN[C@@H]3C2)c(F)cc2c(=O)c(C(=O)O)cn(C3CC3)c12 [Moxifloxacin] + CCCCCCCCCC(=O)N[C@@H]1[C@H]([C@@H]([C@H](O[C@H]1OC2=C3C=C4C=C2OC5=C(C=C(C=C5)[C@H]([C@H]6C(=O)N[C@@H](C7=C(C(=CC(=C7)O)OC8[C@H]([C@H]([C@@H]([C@H](O8)CO)O)O)O)C9=C(C=CC(=C9)[C@H](C(=O)N6)NC(=O)[C@@H]4NC(=O)[C@@H]1C2=CC(=CC(=C2)OC2=C(C=CC(=C2)[C@H](C(=O)N[C@H](CC2=CC(=C(O3)C=C2)Cl)C(=O)N1)N)O)O)O)C(=O)O)O[C@H]1[C@@H]([C@H]([C@@H]([C@H](O1)CO)O)O)NC(=O)C)Cl)CO)O)O [Teicoplanin]
main component drawn
Details | Bliss interaction score
B. subtilis 168 | -0.0201
S. aureus DSM 20231 [1] | 0.0596
S. aureus Newman [3] | -0.0744
S. pneumoniae D39V [2] | -0.0767

fitness, main component drawn
Details | first compound 0.0075 µg/mL | first compound 0.015 µg/mL | first compound 0.03 µg/mL
S. aureus DSM 20231 [4], partner 0.1562 µg/mL | 0.912 | 0.852 | 0.748
S. aureus DSM 20231 [4], partner 0.3125 µg/mL | ≥ 1 | 0.94 | 0.752
S. aureus DSM 20231 [4], partner 0.625 µg/mL | ≥ 1 | 0.991 | 0.745
S. aureus Newman [6], partner 0.1562 µg/mL | 0.773 | 0.597 | 0.0859
S. aureus Newman [6], partner 0.3125 µg/mL | 0.797 | 0.577 | 0.0839
S. aureus Newman [6], partner 0.625 µg/mL | 0.717 | – | 0.06

fitness, one replicate, main component drawn
Details | partner 0.1562 µg/mL | partner 0.3125 µg/mL | partner 0.62 µg/mL | partner 0.625 µg/mL | partner 1.24 µg/mL | partner 2.48 µg/mL
S. aureus DSM 20231 [4], first compound 0.06 µg/mL | 0.665 | 0.7 | – | 0.697 | – | –
S. aureus DSM 20231 [4], first compound 0.12 µg/mL | 0.497 | 0.468 | – | 0.513 | – | –
S. aureus Newman [6], first compound 0.0075 µg/mL | – | – | 0.679 | – | 0.608 | 0.337
S. aureus Newman [6], first compound 0.015 µg/mL | – | – | 0.608 | – | 0.488 | 0.0713
S. aureus Newman [6], first compound 0.03 µg/mL | – | – | 0.0881 | – | 0.0113 | 0.0176
